From US4342774A, “N-Acylcarnosine aluminum salt, its preparation, and a digestive ulcer remedy containing such salt” (Nippon Chemiphar Co., Ltd., priority 1979, dated 1982)
Where “and” joins values, the source holds several entries; their conditions need not be identical. Equal values may be shown once. Where a name gives a salt, the structure may show the parent alone.

What was measured:
Shay's ulcer = Shay's ulcer (pylorus ligation), inhibitory effect, rats; type: in vivo, rat (male Donryu strain); conditions: P.O.; for Ulcer index (total area of all lesions) / % Inhibition: 1,000 mg/kg; for Ulcer index (total area of all lesions): immediately after pylorus ligation; for inhibition in vivo at 1000 mg/kg: 14 h, 1,000 mg/kg
Experimental: (§1) It will be noted that as control compounds for the purposes of comparison, use was made of L-carnosine, L-glutamine, N-acetyl-L-glutamine aluminum and aluminum sucrose sulfate which are known to have an anti-ulcer effect. The anti-ulcer effects and degrees of toxicity of the N-acylcarnosine aluminum compounds according to the invention were determined using rats in which instances various gastric ulcer models of rats were utilized to estimate the anti-ulcer effects.
Shay's ulcer: Groups of ten male Donryu strain rats each weighing 210 to 230 g were deprived of food for 48 hours. The pylorus of each rat was ligated according to the method of Shay et al [Gastroenterology, 5, 43-61 (1945)]. Each of the animals was allowed to stand abstained from food and water for further 14 hours and then sacrificed to remove its stomach. After collection of the gastric juice, the ulcerated area (mm^2) in the forestomach of each rat was measured under a dissecting microscope (10x). The total area (mm^2) of all the lesions of each rat was indicated as an ulcer index. Test medicine samples were given orally immediately after the pylorus ligation.

Stress ulcer = Stress ulcer (water immersion restraint), inhibitory effect, rats; type: in vivo, rat (male Donryu strain); conditions: P.O.; for Ulcer index (total length of all lesions): ten minutes before immersion; for % Inhibition: vs control of the same run
Experimental: (§2) The anti-ulcer effects and degrees of toxicity of the N-acylcarnosine aluminum compounds according to the invention were determined using rats in which instances various gastric ulcer models of rats were utilized to estimate the anti-ulcer effects.
Stress ulcer: Groups of ten male Donryu strain rats each weighing 240 to 260 g were placed in a stress cage which served to immobilize the animals therein and then immersed in a water bath of 23° C. on a level with the xiphoid process according to the method of K. Takagi et al [Jap. […] Seven hours after the immersion, each of the animals was withdrawn from the water bath and immediately sacrificed by a blow on the head, followed by removal of the stomach of each rat. The stomach was slightly inflated by injecting a 1% formalin solution and then immediately immersed in a 1% formalin solution, followed by incising the stomach along its greater curvature to measure the length (mm) of each lesion in the glandular portion under a dissecting microscope (10x). The total length (mm) of all the lesions of each rat was indicated as an ulcer index. Test medicine samples were given orally ten minutes before the immersion in water.

Histamine-induced ulcer = test: Histamine-induced ulcer, inhibitory effect, rats; type: in vivo, rat (male Donryu strain); conditions: P.O.; for Ulcer index (total length of all lesions): before histamine phosphate 300 mg/kg i.p.; for % Inhibition: vs control of the same run
Experimental: as §2
Histamine-induced ulcer: Groups of ten male Donryu strain rats each weighing 210 to 230 g were deprived of food for 48 hours and then administered intraperitoneally with histamine phosphate (300 mg/kg). Four hours after the administration, each of the animals was sacrificed under ether anesthesia, followed by removal of the stomach and immersion in a 1% formalin solution for ten minutes. The stomach which had been semi-fixed was incised along the greater curvature, and the length (mm) of each lesion was measured under a dissecting microscope (10×). The total length (mm) of all the lesions of each rat was indicated as an ulcer index. Test medicine samples were given orally before the histamine administration.

Aspirin-induced ulcer = test: Aspirin-induced ulcer, inhibitory effect, rats; type: in vivo, rat (male Donryu strain); conditions: 1,000 mg/kg, P.O.; for Ulcer index (total length of all lesions): immediately after pylorus ligation, aspirin 100 mg/kg; for % Inhibition: vs control of the same run
Experimental: as §1
Aspirin-induced ulcer: Groups of ten male Donryu strain rats each weighing 220 to 230 g were deprived of food for 24 hours. The pylorus of each rat was ligated under ether anethesia according to the method of S. Okabe et al [Jap. J. Pharmac. 24, 357-361 (1974)]. After the pylorus ligation, aspirin (100 mg/kg) was administered orally to each rat. Seven hours after the administration, each of the animals was sacrificed under ether anesthesia to remove its stomach. After collection of the gastric juice and treatment with a 1% formalin solution, the length (mm) of each lesion formed in the glandular portion was measured. The total length (mm) of all the lesions of each rat was indicated as an ulcer index. Test medicine samples were given orally immediately after the pylorus ligation.

[1] = system: Indomethacin-induced ulcer; test: Indomethacin-induced ulcer, inhibitory effect, rats; type: in vivo, rat (male Donryu strain); conditions: 300 mg/kg, P.O.; for Ulcer index (total length of all lesions): ten minutes before pylorus ligation, indomethacin 25 mg/kg s.c.; for % Inhibition: vs control of the same run
Experimental: as §1
Indomethacin-induced ulcer: Groups of ten male Donryu strain rats each weighing 200 to 215 g were deprived of food for 24 hours. Then, the pylorus was ligated under ether anethesia, after which indomethacin was administered subcutaneously in an amount of 25 mg/kg to each rat. Seven hours after the administration, each of the animals was scarificed under ether anethesia to remove its stomach, followed by immersion in a 1% formalin solution for ten minutes. The stomach which had been semi-fixed was incised along its greater curvature, and the length (mm) of each lesion formed in the mucous membrane was measured under a dissecting microscope (10×). The total length (mm) of all the lesions of each rat was indicated as an ulcer index. Test medicine samples were given orally ten minutes before the pylorus legation.

[2] = Acute toxicity, oral, rats; type: in vivo; conditions: rat, in vivo, po; P.O., male rats, observed seven days
Experimental: (§3) Acute toxicity: Male and female Wister strain rats each weighing 150 to 200 g were divided into two groups, respectively, each group consisting of ten rats, and were administered orally with some of the N-acylcarnosine aluminum compounds according to the invention. The thus treated rats were visually observed for seven days after the administration.

rats = test: Acute toxicity, oral, rats; type: in vivo; conditions: P.O., female rats, observed seven days; 10080 min
Experimental: as §3

[3] = Rattus norvegicus, po, vs control of the same run

Compound	Ulcer index (total area of all lesions) (Shay's ulcer)	inhibition in vivo at 1000 mg/kg (Shay's ulcer; [3]) [%]	% Inhibition (Shay's ulcer; vs control of the same run)	Ulcer index (total length of all lesions) (Stress ulcer; 1,000 mg/kg)	% Inhibition (Stress ulcer; 1,000 mg/kg)	Ulcer index (total length of all lesions) (Aspirin-induced ulcer)	% Inhibition (Aspirin-induced ulcer)	Ulcer index (total length of all lesions) [1]	% Inhibition [1]	Ulcer index (total length of all lesions) (Histamine-induced ulcer; 300 mg/kg)	% Inhibition (Histamine-induced ulcer; 300 mg/kg)	further results
O=C(CCNC(=O)c1ccccc1)N[C@@H](Cc1c[nH]cn1)C(=O)O [H, N-benzoyl-L-carnosine aluminum salt]	1.0 ± 0.9 mm^2	67.7										
CC(=O)NCCC(=O)N[C@@H](Cc1c[nH]cn1)C(=O)O [C, N-acetyl-L-carnosine aluminum salt]	1.0 ± 0.7 mm^2		65.5%									
CC(=O)N[C@@H](CCC(N)=O)C(=O)O.[Al] [N-Acetyl-L-glutamine aluminum, N-acetyl-L-glutamine aluminum]												Ulcer index (total length of all lesions) (Stress ulcer; 2,000 mg/kg): 5.5 ± 4.8 mm; % Inhibition (Stress ulcer; 2,000 mg/kg): 68.6%; inhibition in vivo at 2000 mg/kg (Shay's ulcer; Rattus norvegicus, po, 14 h, 2,000 mg/kg, vs control of the same run): 67.7%; Ulcer index (total length of all lesions) (Histamine-induced ulcer; 2,000 mg/kg): 8.5 ± 3.0 mm; % Inhibition (Histamine-induced ulcer; 2,000 mg/kg): 63.0%
aluminum sucrose sulfate	0.8 ± 0.6 mm^2 and 0.9 ± 0.5 mm^2 and 0.7 ± 0.8 mm^2 and 0.8 ± 0.9 mm^2		72.4% and 71.0% and 71.7% and 68.0%	6.5 ± 6.0 mm and 7.3 ± 6.8 mm	56.7% and 58.3%	3.7 ± 2.1 mm and 2.0 ± 1.1 mm	79.1% and 88.1%	7.8 ± 3.0 mm and 7.4 ± 2.8 mm	52.1% and 56.0%	14.4 ± 1.5 mm and 10.7 ± 2.1 mm	40.2% and 53.5%	
CCC(=O)NCCC(=O)N[C@@H](Cc1c[nH]cn1)C(=O)O [F, N-propionyl-L-carnosine aluminum salt]	0.9 ± 0.7 mm^2		71.0%									
CC(=O)NCCC(=O)NC(Cc1c[nH]cn1)C(=O)O (racemic) [A, N-acetyl-DL-carnosine aluminum salt]	0.5 ± 0.5 mm^2	79.2		4.4 ± 2.2 mm	71.1%	0.6 ± 0.6 mm	96.6%	6.5 ± 2.2 mm	60.1%	9.6 ± 1.8 mm	60.2%	Ulcer index (total length of all lesions) (Stress ulcer; 300 mg/kg): 8.0 ± 2.8 mm; % Inhibition (Stress ulcer; 300 mg/kg): 47.4%; LD50 at 168 h [2]: > 10000 mg/kg; LD50 (rats): > 10,000 mg/kg
CC(=O)NCCC(=O)N[C@@H](Cc1c[nH]cn1)C(=O)O [B, N-acetyl-L-carnosine aluminum salt]	0.6 ± 0.4 mm^2	76		4.8 ± 2.6 mm	72.6%	0.6 ± 0.6 mm	96.4%	6.4 ± 2.2 mm	61.9%	9.1 ± 1.9 mm	60.4%	Ulcer index (total length of all lesions) (Stress ulcer; 300 mg/kg): 9.2 ± 3.0 mm; % Inhibition (Stress ulcer; 300 mg/kg): 47.4%; LD50 at 168 h [2]: > 10000 mg/kg; LD50 (rats): > 10,000 mg/kg
NCCC(=O)N[C@@H](Cc1c[nH]cn1)C(=O)O [L-Carnosine, L-carnosine]		12.5		10.7 ± 2.2 mm and 12.1 ± 2.5 mm	29.6% and 30.9%			17.3 ± 3.0 mm and 17.1 ± 3.1 mm	~ 0%	17.3 ± 3.2 mm and 18.0 ± 2.7 mm	28.2% and 21.7%	Ulcer index (total length of all lesions) (Stress ulcer; 300 mg/kg): 14.2 ± 3.7 mm and 16.0 ± 4.0 mm; % Inhibition (Stress ulcer; 300 mg/kg): 6.6% and 8.6%
CCC(=O)NCCC(=O)N[C@@H](Cc1c[nH]cn1)C(=O)O [E, N-propionyl-L-carnosine aluminum salt]	0.7 ± 0.5 mm^2	77.4										
NC(=O)CC[C@H](N)C(=O)O [L-Glutamine, L-glutamine]		8.3				6.0 ± 2.2 mm and 4.5 ± 1.5 mm	66.1% and 73.2%	9.5 ± 4.1 mm and 9.7 ± 3.9 mm	41.8% and 42.3%			
CC(=O)NCCC(=O)N[C@@H](Cc1c[nH]cn1)C(=O)O [D, N-acetyl-L-carnosine aluminum salt]	0.9 ± 0.9 mm^2		69.0%									
COc1ccccc1C(=O)NCCC(=O)N[C@@H](Cc1c[nH]cn1)C(=O)O [I, N-(o-methoxy)benzoyl-L-carnosine aluminum salt]	1.1 ± 0.8 mm^2	64.5										
CCCCCCC(=O)NCCC(=O)N[C@@H](Cc1c[nH]cn1)C(=O)O [G, N-heptanoyl-L-carnosine aluminum salt]	0.9 ± 1.0 mm^2	71										
